# Source: patent publication US9663543B2 (priority 2014, dated 2017)
# Target: Human factor D (Homo sapiens (Human), UniProt P00746)
# Assay type: biochemical
# Sequence of Human factor D (P00746 26-253 limits assumed): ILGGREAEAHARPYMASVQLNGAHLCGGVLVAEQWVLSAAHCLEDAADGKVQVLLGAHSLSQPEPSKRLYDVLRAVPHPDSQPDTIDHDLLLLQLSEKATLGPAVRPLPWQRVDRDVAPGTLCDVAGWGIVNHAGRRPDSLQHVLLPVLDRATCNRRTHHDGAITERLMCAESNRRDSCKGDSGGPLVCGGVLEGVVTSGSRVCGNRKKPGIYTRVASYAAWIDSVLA
row,SMILES,IC50 [nM]
1,"CCOP(=O)(OCOC(=O)OC(C)C)c1ccc2c(C(C)=O)cn(CC(=O)N3C[C@H](F)C[C@H]3C(=O)NCc3cccc(Cl)c3F)c2c1 (stereo partly drawn) [Compound 6, ((3-acetyl-1-(2-((2S,4R)-2-(3-chloro-2-fluorobenzylcarbamoyl)-4-fluoropyrrolidin-1-yl)-2-oxoethyl)-1H-indol-6-yl)(ethoxy)phosphoryloxy) methyl isopropyl carbonate]",< 1000
2,"NC(=O)c1cn(CC(=O)N2C[C@H](F)C[C@H]2C(=O)NCc2cccc(Cl)c2F)c2cc(P(=O)(O)O)ccc12 [Compound 16, 3-carbamoyl-1-(2-((2S,4R)-2-(3-chloro-2-fluorobenzylcarbamoyl)-4-fluoropyrrolidin-1-yl)-2-oxoethyl)-1H-indol-6-ylphosphonic acid]",< 1000
3,"O=C(NCc1cccc(Cl)c1F)[C@@H]1C[C@@H](F)CN1C(=O)Cn1cc(C(=O)C(F)(F)F)c2ccc(P(=O)(O)O)cc21 [Compound 32, 1-(2-((2S,4R)-2-(3-chloro-2-fluorobenzylcarbamoyl)-4-fluoropyrrolidin-1-yl)-2-oxoethyl)-3-(2,2,2-trifluoroacetyl)-1H-indol-6-ylphosphonic acid]",< 1000
4,"CC(=O)c1cn(CC(=O)N2C[C@H](F)C[C@H]2C(=O)NCc2cccc(Cl)c2F)c2cc(P(=O)(O)O)c(F)cc12 [Compound 31, 3-acetyl-1-(2-((2S,4R)-2-(3-chloro-2-fluorobenzylcarbamoyl)-4-fluoropyrrolidin-1-yl)-2-oxoethyl)-5-fluoro-1H-indol-6-ylphosphonic acid]",< 1000
5,"CCOP(=O)(OCC)c1ccc2c(C(N)=O)cn(CC(=O)N3C[C@H](F)C[C@H]3C(=O)NCc3cccc(Cl)c3F)c2c1 [Compound 15, diethyl 3-carbamoyl-1-(2-((2S,4R)-2-(3-chloro-2-fluorobenzylcarbamoyl)-4-fluoropyrrolidin-1-yl)-2-oxoethyl)-1H-indol-6-ylphosphonate]",< 1000
6,"CCOP(=O)(O)c1ccc2c(C(C)=O)cn(CC(=O)N3C[C@H](F)C[C@H]3C(=O)NCc3cccc(Cl)c3F)c2c1 [Compound 2, ethyl hydrogen 3-acetyl-1-(2-((2S,4R)-2-(3-chloro-2-fluorobenzylcarbamoyl)-4-fluoropyrrolidin-1-yl)-2-oxoethyl)-1H-indol-6-ylphosphonate]",< 1000
7,"CC(=O)c1cn(CC(=O)N2C[C@H](F)C[C@H]2C(=O)NCc2cccc(Cl)c2F)c2cc(P(=O)(O)OCOC(=O)OC(C)C)ccc12 [Compound 22, ((3-acetyl-1-(2-((2S,4R)-2-(3-chloro-2-fluorobenzylcarbamoyl)-4-fluoropyrrolidin-1-yl)-2-oxoethyl)-1H-indol-6-yl)(hydroxy)phosphoryloxy) methyl isopropyl carbonate]",< 1000
8,"CCOP(=O)(OCC)c1ccc2c(c1)c(C(C)=O)cn2CC(=O)N1C[C@H](F)C[C@H]1C(=O)NCc1cccc(Cl)c1F [Compound 8, diethyl 3-acetyl-1-(2-((2S,4R)-2-(3-chloro-2-fluorobenzylcarbamoyl)-4-fluoropyrrolidin-1-yl)-2-oxoethyl)-1H-indol-5-ylphosphonate]",< 1000
9,"COC(=O)c1cn(CC(=O)N2C[C@H](F)C[C@H]2C(=O)NCc2cccc(Cl)c2F)c2cc(P(=O)(O)O)ccc12 [Compound 14, 1-(2-((2S,4R)-2-(3-chloro-2-fluorobenzylcarbamoyl)-4-fluoropyrrolidin-1-yl)-2-oxoethyl)-3-(methoxycarbonyl)-1H-indol-6-ylphosphonic acid]",< 1000
10,"CCOP(=O)(OCC)c1ccc2c(C(=O)OC)cn(CC(=O)N3C[C@H](F)C[C@H]3C(=O)NCc3cccc(Cl)c3F)c2c1 [Compound 13, methyl 1-(2-((2S,4R)-2-(3-chloro-2-fluorobenzylcarbamoyl)-4-fluoropyrrolidin-1-yl)-2-oxoethyl)-6-(diethoxyphosphoryl)-1H-indole-3-carboxylate]",< 1000
11,"CC(=O)c1cn(CC(=O)N2C[C@H](F)C[C@H]2C(=O)NCc2cccc(Cl)c2F)c2cc(P(=O)(O)OCOC(=O)C(C)(C)C)ccc12 [Compound 28, ((3-acetyl-1-(2-((2S,4R)-2-(3-chloro-2-fluorobenzylcarbamoyl)-4-fluoropyrrolidin-1-yl)-2-oxoethyl)-1H-indol-6-yl)(hydroxy)phosphoryloxy) methyl pivalate]",< 1000
12,"CCOP(=O)(OCC)c1ccc2c(C(N)=O)nn(CC(=O)N3C[C@H](F)C[C@H]3C(=O)NCc3cccc(Cl)c3F)c2c1 [Compound 17, diethyl 3-carbamoyl-1-(2-((2S,4R)-2-(3-chloro-2-fluorobenzylcarbamoyl)-4-fluoropyrrolidin-1-yl)-2-oxoethyl)-1H-indazol-6-ylphosphonate]",< 1000
13,"CC(=O)c1cn(CC(=O)N2[C@@H]3CCC[C@@H]3C[C@H]2C(=O)NCc2cccc(Cl)c2F)c2cc(P(=O)(O)O)ccc12 [Compound 7, 3-acetyl-1-(2-((2S,3aR,6aR)-2-(3-chloro-2-fluorobenzylcarbamoyl)hexa-hydrocyclopenta[b]pyrrol-1(2H)-yl)-2-oxoethyl)-1H-indol-6-ylphosphonic acid]",< 1000
14,"CCP(=O)(O)c1ccc2c(C(C)=O)cn(CC(=O)N3C[C@H](F)C[C@H]3C(=O)NCc3cccc(Cl)c3F)c2c1 [Compound 27, 3-acetyl-1-(2-((2S,4R)-2-(3-chloro-2-fluorobenzylcarbamoyl)-4-fluoropyrrolidin-1-yl)-2-oxoethyl)-1H-indol-6-yl(ethyl)phosphinic acid]",< 1000
15,"CCOP(=O)(CC)c1ccc2c(C(C)=O)cn(CC(=O)N3C[C@H](F)C[C@H]3C(=O)NCc3cccc(Cl)c3F)c2c1 (stereo partly drawn) [Compound 24, ethyl 3-acetyl-1-(2-((2S,4R)-2-(3-chloro-2-fluorobenzylcarbamoyl)-4-fluoropyrrolidin-1-yl)-2-oxoethyl)-1H-indol-6-yl(ethyl)phosphinate]",< 1000
16,"CC(=O)c1cn(CC(=O)N2C[C@H](F)C[C@H]2C(=O)NCc2cccc(Cl)c2F)c2cc(P(=O)(OCOC(=O)C(C)(C)C)OCOC(=O)C(C)(C)C)ccc12 [Compound 26, ((3-acetyl-1-(2-((2S,4R)-2-(3-chloro-2-fluorobenzylcarbamoyl)-4-fluoropyrrolidin-1-yl)-2-oxoethyl)-1H-indol-6-yl)phosphoryl)bis(oxy)bis (methylene) bis(2,2-dimethylpropanoate)]",< 1000
17,"CCOP(=O)(OCC)c1ccc2c(C(=O)O)nn(CC(=O)N3C[C@H](F)C[C@H]3C(=O)NCc3cccc(Cl)c3F)c2c1 [Compound 12, 1-(2-((2S,4R)-2-(3-chloro-2-fluorobenzylcarbamoyl)-4-fluoropyrrolidin-1-yl)-2-oxoethyl)-6-(diethoxyphosphoryl)-1H-indazole-3-carboxylic acid]",> 10000
18,"CCOP(=O)(O)c1ccc2c(c1)c(C(C)=O)cn2CC(=O)N1C[C@H](F)C[C@H]1C(=O)NCc1cccc(Cl)c1F [Compound 9, ethyl hydrogen 3-acetyl-1-(2-((2S,4R)-2-(3-chloro-2-fluorobenzylcarbamoyl)-4-fluoropyrrolidin-1-yl)-2-oxoethyl)-1H-indol-5-ylphosphonate]",> 10000
19,"CCOC(=O)c1nn(CC(=O)N2C[C@H](F)C[C@H]2C(=O)NCc2cccc(Cl)c2F)c2cc(P(=O)(OCC)OCC)ccc12 [Compound 11, ethyl 1-(2-((2S,4R)-2-(3-chloro-2-fluorobenzylcarbamoyl)-4-fluoropyrrolidin-1-yl)-2-oxoethyl)-6-(diethoxyphosphoryl)-1H-indazole-3-carboxylate]",> 10000
